Reference: ChEMBL document CHEMBL2346623, “Deconstruction of sulfonamide inhibitors of the urotensin receptor (UT) and design and synthesis of benzylamine and benzylsulfone antagonists” (Bioorg Med Chem Lett, 2013)

What was measured:
Urotensin-2 receptor [1] = molecular target: T1, Urotensin-2 receptor (Homo sapiens, UniProt Q9UKP6); test: Displacement of [125I]-U2 from human recombinant urotensin2 receptor expressed in human Chem-2 cells after 4 hrs by scintillation proximity assay; format: cell-based
T1 sequence (Q9UKP6 whole entry): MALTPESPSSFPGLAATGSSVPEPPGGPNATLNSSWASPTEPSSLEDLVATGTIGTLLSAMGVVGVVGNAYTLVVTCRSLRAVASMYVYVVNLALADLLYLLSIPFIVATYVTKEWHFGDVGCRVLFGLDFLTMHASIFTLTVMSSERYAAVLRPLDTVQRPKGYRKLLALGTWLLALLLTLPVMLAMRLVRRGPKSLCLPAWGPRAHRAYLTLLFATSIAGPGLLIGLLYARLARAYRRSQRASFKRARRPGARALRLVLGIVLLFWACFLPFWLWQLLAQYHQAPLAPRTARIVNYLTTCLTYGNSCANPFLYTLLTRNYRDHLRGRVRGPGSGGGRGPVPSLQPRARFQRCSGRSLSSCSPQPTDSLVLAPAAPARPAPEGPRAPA

[2] = Drug metabolism in human liver microsomes relative to total liver blood flow; format: ADME, Microsome; settings: read-out: Drug metabolism
Urotensin-2 receptor [3] = molecular target: T1, Urotensin-2 receptor; test: Antagonist activity at recombinant human urotensin2 receptor expressed in CHO cells assessed as inhibition of urotensin2-stimulated Ca2+ mobilization after 1 hr by FLIPR assay; format: functional, cell-based
Urotensin-2 receptor [4] = molecular target: T2, Urotensin-2 receptor (Rattus norvegicus, UniProt P49684); test: Antagonist activity at rat urotensin2 receptor assessed as inhibition of urotensin2-stimulated Ca2+ mobilization by cell-based assay; format: functional
T2 sequence (P49684 whole entry): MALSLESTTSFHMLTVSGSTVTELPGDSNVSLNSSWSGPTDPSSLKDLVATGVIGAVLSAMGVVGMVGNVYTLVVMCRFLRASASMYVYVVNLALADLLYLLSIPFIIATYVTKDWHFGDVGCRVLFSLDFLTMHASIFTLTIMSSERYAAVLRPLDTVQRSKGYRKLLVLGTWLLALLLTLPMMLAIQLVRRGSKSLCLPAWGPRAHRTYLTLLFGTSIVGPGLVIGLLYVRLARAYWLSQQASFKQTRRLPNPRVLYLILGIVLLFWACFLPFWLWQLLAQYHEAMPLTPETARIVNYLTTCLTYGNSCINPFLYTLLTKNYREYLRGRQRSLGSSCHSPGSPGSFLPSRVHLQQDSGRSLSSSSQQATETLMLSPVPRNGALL

Urotensin-2 receptor [5] = molecular target: T3, Urotensin-2 receptor (Mus musculus, UniProt Q8VIH9); test: Antagonist activity at mouse urotensin2 receptor assessed as inhibition of urotensin2-stimulated Ca2+ mobilization by cell-based assay; format: functional
T3 sequence (Q8VIH9 whole entry): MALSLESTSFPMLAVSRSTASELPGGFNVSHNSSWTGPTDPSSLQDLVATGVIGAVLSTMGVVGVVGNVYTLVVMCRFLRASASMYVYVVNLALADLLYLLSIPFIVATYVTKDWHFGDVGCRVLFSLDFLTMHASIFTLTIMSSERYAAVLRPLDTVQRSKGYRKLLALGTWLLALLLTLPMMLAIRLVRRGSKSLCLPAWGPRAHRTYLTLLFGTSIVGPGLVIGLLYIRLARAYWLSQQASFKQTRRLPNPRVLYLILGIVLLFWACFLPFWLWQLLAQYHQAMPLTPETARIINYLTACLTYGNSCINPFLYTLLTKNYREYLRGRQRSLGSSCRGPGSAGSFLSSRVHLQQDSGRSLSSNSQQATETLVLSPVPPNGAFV

[6] = Solubility of the compound at pH 7.4; format: physicochemical; settings: buffer
[7] = Solubility of the compound at pH 4.5; format: physicochemical; settings: buffer
[8] = Drug metabolism in rat liver microsomes relative to total liver blood flow; format: ADME, Microsome; settings: read-out: Drug metabolism
Urotensin-2 receptor [9] = molecular target: T1, Urotensin-2 receptor; test: Antagonist activity at recombinant human urotensin2 receptor expressed in CHO cells assessed as inhibition of urotensin2-stimulated Ca2+ mobilization incubated 10 mins prior to urotensin2 stimulation measured after 10 mins by fluorometric analysis; format: functional, cell-based
Urotensin-2 receptor [10] = molecular target: T1, Urotensin-2 receptor; test: Displacement of [125I]-U2 from recombinant human urotensin2 receptor expressed in human U2OS cells after 30 mins by gamma counting analysis; format: cell-based

| IC50 (Urotensin-2 receptor [1]) | hepatic extraction ratio [2] | IC50 (Urotensin-2 receptor [3]) | further results | SMILES |
| --- | --- | --- | --- | --- |
| 23 nM | 0.65 | 43 nM | – | COc1cc(Br)c(S(=O)(=O)Nc2ccc(Cl)c(O[C@@H]3CCN(C)C3)c2)cc1OC |
| – | – | – | IC50 (Urotensin-2 receptor [4]): 2000 nM; IC50 (Urotensin-2 receptor [5]): 4700 nM; solubility [6]: > 87 µg/mL; solubility [7]: > 87 µg/mL | COc1cc(Br)c(S(=O)(=O)Cc2ccc(Cl)c(O[C@@H]3CCN(C)C3)c2)cc1OC |
| 245 nM | 0.72 | – | – | COc1cc(Br)c([S+]([O-])Cc2ccc(Cl)c(O[C@@H]3CCN(C)C3)c2)cc1OC (stereo partly drawn) |
| 440 nM | 0.76 | – | – | COc1cc(Br)c(SCc2ccc(Cl)c(O[C@@H]3CCN(C)C3)c2)cc1OC |
| 237 nM | 0.28 | 1330 nM | – | COc1cc(Br)c(CNc2ccc(Cl)c(O[C@@H]3CCN(C)C3)c2)cc1OC |
| 1350 nM | 0.36 | 1450 nM | – | COc1cc(Br)c(CNc2ccc(Cl)c(O[C@H]3CCN(C)C3)c2)cc1OC |
| 1200 nM | – | 1300 nM | – | COc1cc(Br)c(CNc2ccc(Cl)c(OCCN(C)C)c2)cc1OC |
| 217 nM | 0.43 | 191 nM | hepatic extraction ratio [8]: < 0.06; IC50 (Urotensin-2 receptor [4]): 3900 nM; IC50 (Urotensin-2 receptor [5]): 6400 nM; solubility [6]: > 52 µg/mL; solubility [7]: > 52 µg/mL | COc1cc(Br)c(CNc2ccc(C(F)(F)F)c(O[C@H]3CCN(C)C3)c2)cc1OC |
| > 10000 nM | – | – | – | CN(C)CCOc1cc(NCc2ccccc2)ccc1Cl |
| 3500 nM | – | 6000 nM | – | CN(C)CCOc1cc(NCc2ccccc2Br)ccc1Cl |
| 821 nM | – | 1870 nM | – | CN1CC[C@H](Oc2cc(NCc3ccccc3Br)ccc2C(F)(F)F)C1 |
| 520 nM | – | 765 nM | – | CN(C)CCOc1cc(NCc2ccccc2C(F)(F)F)ccc1Cl |
| 691 nM | – | 1130 nM | – | COc1cccc(CNc2ccc(C(F)(F)F)c(O[C@H]3CCN(C)C3)c2)c1 |
| 620 nM | – | 1400 nM | – | CN1CC[C@H](Oc2cc(NCc3c(Br)ccc4c3OCO4)ccc2C(F)(F)F)C1 |
| 450 nM | – | 950 nM | – | CN1CC[C@H](Oc2cc(NCc3cc4c(cc3Br)OCO4)ccc2C(F)(F)F)C1 |
| 2700 nM | – | 2000 nM | – | CN1CC[C@H](Oc2cc(NCc3cccs3)ccc2C(F)(F)F)C1 |
| 134 nM | – | 100 nM | – | COc1cc(Br)c(S(=O)(=O)Nc2ccc(C(F)(F)F)c(OCCN(C)C)c2)cc1OC |
| 6200 nM | – | – | – | COc1cc(Br)c(S(=O)(=O)Nc2ccc(C(F)(F)F)c(OCCN3CCOCC3)c2)cc1OC |
| 840 nM | – | – | – | COc1cc(Br)c(S(=O)(=O)Nc2ccc(C(F)(F)F)c(OCCN3CCN(C)CC3)c2)cc1OC |
| 800 nM | – | 350 nM | – | COc1cc(Br)c(S(=O)(=O)Nc2ccc(C(F)(F)F)c(OC[C@H]3CCCN3C)c2)cc1OC |
| 2100 nM | – | – | – | COc1cc(Br)c(S(=O)(=O)Nc2ccc(C(F)(F)F)c(OC[C@@H]3CCCN3C)c2)cc1OC |
| > 10000 nM | – | – | – | COc1cc(Br)c(S(=O)(=O)Nc2ccc(C(F)(F)F)c(F)c2)cc1OC |
| – | 0.53 | – | IC50 (Urotensin-2 receptor [9]): 39 nM; IC50 (Urotensin-2 receptor [10]): < 5 nM | Cc1cc(NC(=O)NCCN2CCC(O)(Cc3ccccc3)CC2)c2ccccc2n1 [PALOSURAN] |
